The values below come from the SangsterLogP compilation.

Residues, ends and D or L forms follow the SMILES beside them. *: point of attachment. Cbz = O=C(OCc1ccccc1)*

A short description of this series: method code SF, from Hansch, C. & Leo, A. (1987). Log P database [Dataset]. Pomona College Medicinal Chemistry Project.

Usually logD stands for the decadic logarithm of the distribution of all forms, ionised or not, between an organic phase and buffer at a given pH. The low end stands for lower lipophilicity, the high end for higher lipophilicity. `Nc1nc(N)c2ccccc2n1` displayed a log distribution coefficient (logD) (pH 13.0) of 1. In general, logP refers to a log measure of how a compound divides between an organic and an aqueous phase. Lower therefore signals a more hydrophilic compound. `Nc1nccs1` came in with a logP of 0.38.

In turn, `NC1=Nc2cc(Cl)ccc2S(=O)(=O)N1` yielded a logP of 0.91. Same read-out and setting: the result for `O=c1cnn([C@@H]2O[C@H](CO)[C@@H](O)[C@H]2O)c(=O)[nH]1` reads -2.14. For the compound `C=CC=C`, the lipophilicity (logP) turned out to be 1.99. On the same count and under the same terms, the result for `COc1ccc2[nH]c(C(O)C(O)c3nc4cc(OC)ccc4[nH]3)nc2c1` (stereo unspecified) reads 1.05; that for `CC(=O)Nc1cccc(/N=N/N(C)C)c1`, 1.61.

In turn, `C=C(Cl)Cl` displayed a logP of 2.13. Same read-out and setting: with `O=[N+]([O-])CCc1ccccc1` the figure was 2.08; with `CCNC(=O)Nc1ccccc1`, 1.64; with `O=C(O)c1csc(C=Cc2ccc([N+](=O)[O-])o2)n1`, -0.03. The same measure, in the same setting: the result for `Cc1cc(COc2ccccc2C(C)C)c(O)c(C(=O)O)c1` reads 4.91.

On to `NS(=O)(=O)c1ccc(C(=O)O)cc1`, for which the log distribution coefficient (logD) (pH 1.0) is 0.5.

As to `ClCCCCl`, the lipophilicity (logP) turned out to be 2. In the case of `CCOCC1CNc2nc(N)[nH]c(=O)c2N1` (stereo unspecified), the logP was -0.68.

The compound `N#Cc1ccco1` gave a log partition coefficient (logP) of 0.96.

Consider `Nc1cccc2nc3ccccc3cc12`, for which the lipophilicity (logP) was 2.47. In turn, `O=C(Nc1ccc(Cl)c(Cl)c1)C(F)F` returned a log partition coefficient (logP) of 3.18.

`NC(=O)c1ccsc1`: the lipophilicity (logP) came to 0.5. Still for that read-out and setting: the result for `CC(=O)C(=Cc1ccccc1)C(C)=O` reads 1.59; that for `NC(=O)c1cccc(F)c1`, 0.91; that for `CC(=O)Nc1ccc2c(c1)S(=O)(=O)c1ccccc1C2=O`, 2.35. Still for that read-out and setting: with `CC(=O)C(=Cc1ccc(Cl)cc1)C(C)=O` the figure was 2.32; with `O=C(Nc1ccccc1)N(c1ccccc1)c1ccccc1`, 3.28; with `CC(=O)OCC(=O)[C@@]12OC(C)(C)O[C@@H]1C[C@H]1[C@@H]3C[C@H](F)C4=CC(=O)C=C[C@]4(C)[C@@]3(F)[C@@H](O)C[C@@]12C`, 3.19.

With `CC(C)n1cc(C(C)(C)C)nc1SSc1nc(C(C)(C)C)cn1C(C)C`, the log partition coefficient (logP) was found to be 4.1. The same measure, in the same setting: the result for `c1ccc2c(c1)OCCO2` reads 2.01; that for `CCCCN(CCCC)C(=O)COc1ccccc1`, 3.23; that for `COc1ccccc1C`, 2.74. On the same count and under the same terms, with `CC(=O)Nc1cccs1` the figure was 1.1. Still for that read-out and setting: with `C(=C\c1ccccn1)/c1ccccn1` the figure was 2.11. Regarding `Nc1nc(CON=CC(=O)NC2C(=O)N3C(C(=O)OC4OC(=O)c5ccccc54)=CCSC23)cs1` (stereo unspecified), the logD (pH 6.2) turned out to be 1.28. Consider `CC(=O)C(Cc1ccccc1)C(C)=O`, for which the log partition coefficient (logP) stood at 1.89. The compound `O=C(Nc1ccccc1)c1ccc(C(=O)Nc2ccccc2)cc1` yielded a lipophilicity (logP) of 3.72.

In the case of `CCC(C)NC(=O)C=C(Cl)c1ccc(Cl)cc1` (stereo unspecified), the logP was found to be 3.61. Compound `CCC(=O)OCC(=O)[C@@]1(OC(=O)CC)[C@@H](C)C[C@H]2[C@@H]3CCC4=CC(=O)C=C[C@]4(C)[C@@]3(F)[C@@H](O)C[C@@]21C` registered a lipophilicity (logP) of 4.07. As for `Oc1c(Br)cc(Br)c(O)c1Br`, the log distribution coefficient (logD) (pH 1.4) amounted to 4.37. Compound `CC(=O)Oc1ccccc1Cl` returned a log partition coefficient (logP) of 2.18. `NC(=O)c1ccc(O)cc1` registered a logP of 0.33. In the case of `CCCCCC1CN[C@H](C(=O)NC(C(C)Cl)[C@H]2O[C@H](SC)[C@H](O)[C@@H](O)[C@H]2O)C1` (stereo in doubt), the pH-dependent lipophilicity (logD) (pH 12.0) turned out to be 2.74. For the compound `CCOC(=O)/C(=C/c1ccc(OC)c(OC)c1)C(C)=O`, the lipophilicity (logP) was determined as 2.02.

With `COc1cccc(S(C)(=O)=O)c1`, the logD (pH 7.0) was determined as 0.86. As for `O=C(/C=C/C(=O)c1ccccc1)c1ccccc1`, the logP is 3.16. On the same count and under the same terms, with `CCC1(c2ccccc2)CCC(=O)NC1=O` (stereo unspecified) the figure was 1.9; with `CCCCCC1(CC)C(=O)NC(=O)NC1=O`, 2.24. Still for that read-out and setting: with `CCOCOCC` the figure was 0.84; with `OC1OC[C@H](O)[C@H](O)[C@H]1O` (stereo partly specified), -3.02. Compound `CC(=O)NN=CCCc1ccccc1` gave a logD (pH 7.4) of 1.8.

`CCC(C)c1ccccc1O` (stereo unspecified) registered a lipophilicity (logP) of 3.27. Still for that read-out and setting: with `CCC(C)NC(=O)C=C(c1ccc(Cl)cc1)C(C)C` (stereo unspecified) the figure was 4.03; with `CNP(=O)(OC)Oc1ccc(Cl)cc1Cl` (stereo unspecified), 2.41. Same read-out and setting: with `CC1=Nc2ccc(C(F)(F)F)cc2S(=O)(=O)N1` the figure was 1.51. The same measure, in the same setting: with `C=C(F)F` the figure was 1.24; with `CCC(C)NP(=O)(OC)Oc1cc(Cl)c(Cl)cc1Cl` (stereo unspecified), 3.99.

For the compound `Cc1c(N2CCCC2)c(=O)n(-c2ccccc2)c(=O)n1C`, the log distribution coefficient (logD) (pH 7.4) came to 2.26. For the compound `N#CN=[N+]([O-])c1cccc(F)c1`, the lipophilicity (logP) stood at 1.85.

`COc1cccc(C)c1`: the log partition coefficient (logP) worked out at 2.66. With `CS(=O)(=O)F`, under “pH 1.0”, the logD amounted to 0.55. In turn, `CC(=O)OC[C@@H](OC(C)=O)[C@@H](OC(C)=O)[C@H](OC(C)=O)[C@H](C=O)OC(C)=O` had a lipophilicity (logP) of 0.63. On the same count and under the same terms, the result for `CCCCOC(=O)c1ccc(C(=O)OCCCC)cc1` reads 5.53. Same read-out and setting: the result for `COc1ccc(C=C(C(C)=O)C(C)=O)cc1` reads 1.73. Where the note is “pH 2.0”, `Cn1cc(C(=O)O)c2ccccc21` yielded a pH-dependent lipophilicity (logD) of 1.76. For the compound `N#Cc1cccc(N)c1`, the log partition coefficient (logP) came out at 1.07. For `CC(C(=O)N(C)c1ccc(S(=O)(=O)N(C)C)cc1)c1ccccc1` (stereo unspecified), the log partition coefficient (logP) was found to be 1.73.

In turn, `CC(C)C(NC(=O)OCc1ccccc1)C(=O)NC(Cc1ccc(O)cc1)C(=O)O` (stereo not drawn) (Cbz-Val-Tyr-OH; configuration not given here) gave a lipophilicity (logP) of 2.43. Take `Cn1c(SCC2=C(C(=O)O)N3C(=O)C(NC(=O)Cc4cccs4)C3SC2)nnc(O)c1=O` (stereo unspecified): the logD (pH 3.0) was -0.52.

Regarding `N#Cc1cccc(OC(=O)CNC(=O)c2ccccc2)c1`, the logP was found to be 2.11. Compound `O=C(O)c1cc2ccccc2[nH]1` gave a log distribution coefficient (logD) (pH 2.0) of 2.31. For the compound `C=C(CC(Cl)(Cl)Cl)c1ccccc1`, the lipophilicity (logP) turned out to be 4.56. Take `O=C(O)c1ccccc1-c1ccccc1C(=O)O`: the pH-dependent lipophilicity (logD) (pH 1.0) came out at 2.07. Consider `CC(=O)Nc1cccc(I)c1`, for which the lipophilicity (logP) was 2.64. As for `CS(=O)(=O)c1ccc(Cl)cc1`, the logD (pH 7.0) was 1.06. In the case of `Cc1ccc(Nc2ccc(O)c3c2C(=O)c2ccccc2C3=O)cc1`, the logP stood at 3.12. Same read-out and setting: with `COc1ccc(NC(C)=O)cc1` the figure was 1.1; with `Cc1ccc2cccnc2c1`, 2.47; with `O=[N+]([O-])c1ccc2[nH]ccc2c1`, 2.53. Same read-out and setting: the result for `O=NN1CCCCC1=O` reads -1.05; that for `COC(=O)c1ccc[nH]1`, 1.17; that for `c1ccc2[nH]c(CCCCCCc3nc4ccccc4[nH]3)nc2c1`, 1.66. `CN(C)c1cnccn1`: the log partition coefficient (logP) was determined as 0.96. Same read-out and setting: with `NS(=O)(=O)c1ccc(C(=O)c2ccncc2)cc1` the figure was 0.56; with `Cc1ccc(C=C(C#N)C#N)cc1`, 2.4.

For the setting “pH 13.0”, `CC1(C)N=C(N)N=C(N)N1c1ccccc1` gave a pH-dependent lipophilicity (logD) of 0.28. With `Nc1cccc(OC(=O)CNC(=O)c2ccccc2)c1`, the logP stood at 1.3. On the same count and under the same terms, with `O=C(Nc1ccc(Cl)c(Cl)c1)C1CCCCC1` the figure was 4.72; with `CCCCCN(CCCCC)/N=C/c1c2c(O)c3c(O)c(C)c4c(c3c1O)C(=O)C(C)(O/C=C\C(OC)C(C)C(OC(C)=O)C(C)C(O)C(C)C(O)C(C)/C=C\C=C(C)C(=O)N2)O4` (stereo unspecified), 3.47. Same read-out and setting: with `O=c1[nH]c2ccccc2[nH]c1=O` the figure was 0.2; with `CC(C)(C)c1cc(O)ccc1[N+](=O)[O-]`, 3.65. On the same count and under the same terms, the result for `CC(=O)Oc1ccccc1[N+](=O)[O-]` reads 1.55; that for `c1cnc2nccnc2c1`, -0.04. For `c1cncc([C@@H]2CCCN2)c1`, the log distribution coefficient (logD) (pH 11.0) is 0.17.

In the case of `O=C(O)CNC(=O)c1ccccc1`, the pH-dependent lipophilicity (logD) (pH 1.0) turned out to be 0.31. `CCN(CC)c1c(C)n(-c2ccccc2)c(=O)n(C)c1=O` displayed a logD (pH 7.4) of 2.19.

Compound `O=[N+]([O-])c1ccc(C=Cc2nccc(Cl)n2)o1` displayed a logP of 1.31.

The compound `COC(=O)c1ccc(C(=O)OC)cc1` yielded a logD (pH 7.0) of 2.25.

The compound `CNP(=O)(OC)Oc1cccc(C(C)(C)C)c1` (stereo unspecified) registered a log partition coefficient (logP) of 2.65.

For `NC(=O)C(F)(F)F`, the lipophilicity (logP) came to 0.12. Same read-out and setting: the result for `CN(N=Nc1ccc(C(N)=O)cc1)C(C)(C)C` reads 2.61. The same measure, in the same setting: with `CCCOc1cccc(C=C(C(C)=O)C(=O)OCC)c1` the figure was 3.34; with `CC(=O)C(=Cc1ccccc1C)C(C)=O`, 1.98; with `O=C(O)COc1ccccc1O`, 0.85. Still for that read-out and setting: the result for `Cc1cc(CSc2ccccc2C(C)C)c(O)c(C(=O)O)c1` reads 4.36; that for `O=[N+]([O-])c1ccc2[nH]c(CCc3nc4cc([N+](=O)[O-])ccc4[nH]3)nc2c1`, 1.29. For `CS(=O)c1ccccc1` (stereo unspecified), the logP is 0.55. The same measure, in the same setting: the result for `O=C(O)c1ccoc1` reads 1.03; that for `CCC(C)NC(=O)/C(Cl)=C\c1ccccc1` (stereo unspecified), 3.52. Same read-out and setting: the result for `O=S(=O)(Nc1ccccc1)c1ccccc1` reads 2.58; that for `COC(=O)C(C)Oc1ccc(Oc2ccc(Cl)cc2Cl)cc1` (stereo unspecified), 4.8; that for `c1ccc2[nH]nnc2c1`, 1.33. The same measure, in the same setting: with `NNC(=O)NN=Cc1ccccc1` the figure was 0.81; with `CC(=O)Nc1ccc(OC(C)=O)cc1`, 0.8. The compound `O=C(NCC(O)CO)Nc1ccccc1` (stereo unspecified) showed a log partition coefficient (logP) of 0.28.

In turn, `CCOc1ccc(C(N)=O)cc1` had a log partition coefficient (logP) of 1.3. Under “pH 12.3”, `CCC[C@H]1CN[C@H](C(=O)N[C@@H]([C@H]2O[C@H](SC)[C@H](O)[C@@H](O)[C@H]2O)[C@H](C)Cl)C1` returned a logD of 1.69.

In turn, `CCNc1nc(NC(C)C)nc(SC)n1` registered a logP of 2.98. On the same count and under the same terms, the result for `O=C(O)COc1ccc(Cl)c([N+](=O)[O-])c1` reads 1.85; that for `CC(=O)c1ccc([C@@H](O)[C@@H](CO)NC(=O)C(Cl)Cl)cc1`, 0.57; that for `CCOCCOC(=O)C(C#N)=C(CC)Nc1ccc([N+](=O)[O-])cc1`, 2.6. Regarding `CCN(CC)c1c(C)n(CC)c(=O)n(-c2ccccc2)c1=O`, the pH-dependent lipophilicity (logD) (pH 7.4) came to 2.2.

For `CNC(=S)NC12CC3CC(CC(C3)C1)C2`, the lipophilicity (logP) was found to be 2.67. Regarding `CC1(C)N=C(N)N=C(N)N1c1ccc(C(F)(F)F)cc1`, the logD (pH 13.0) stood at 1.22.
